Assay results taken from PMC7586935 (Journal of Clinical Pharmacology, 2020).
Where a name gives a salt, the structure may show the parent alone. Read-outs that look alike come from different tables or passages of the source.

Experiments:
[1] = Plasma pharmacokinetics after single oral dose; type: in vivo; conditions: human; for AUC / Tmax: oral; for Cmax: po
[2] = test system: HR, PR, and QRS of healthy volunteers; experiment: PK-PD analysis of other ECG parameters; type: in vivo, human
[3] = test system: QTcF interval of healthy volunteers; experiment: Time-matched analysis of placebo-adjusted change from baseline QTcF; type: in vivo, human
[4] = test system: healthy volunteers; experiment: ECG outlier analyses; type: in vivo, human
[5] = test system: healthy volunteers; experiment: ECG morphological analyses; type: in vivo, human
[6] = test system: healthy volunteers; experiment: Safety assessment: treatment-emergent adverse events; type: in vivo, human
[7] = mean ± SE, cited from earlier work
[8] = test system: human ether‐a‐go‐go–related gene potassium channels; conditions: in vitro, at clinically relevant plasma concentrations; cited from earlier work
[9] = test system: CYP3A4; conditions: cited from earlier work
[10] = test system: QT/QTc interval of healthy volunteers; experiment: Concentration-QTc
[11] = 50 mg trazodone HCl with ritonavir (4 doses of 200 mg)
[12] = 50 mg trazodone HCl, control condition

- AUC ([1]; 20 mg): 2150 ± 909 ng·h/mL
- Tmax ([1]; 20 mg): 30 min
- AUC ([1]; 60 mg): 6240 ± 2030 ng·h/mL
- Tmax ([1]; 60 mg): 30 min
- AUC ([1]; 140 mg): 12800 ± 4910 ng·h/mL
- Tmax ([1]; 140 mg): 18 min
- Cmax ([1]; 20 mg): 413 ± 79.1 ng/mL
- Cmax ([1]; 60 mg): 1270 ± 598 ng/mL
- Cmax ([1]; 140 mg): 2080 ± 600 ng/mL
SMILES: O=c1n(CCCN2CCN(c3cccc(Cl)c3)CC2)nc2ccccn12 [Trazodone, Trazodone hydrochloride]
- Slope of HR change from baseline vs trazodone plasma concentration ([2]; SE 0.8013): 2.199
- Slope of PR change from baseline vs trazodone plasma concentration ([2]; in vivo): –3.6040
- Slope of QRS change from baseline vs trazodone plasma concentration ([2]; in vivo): 0.0445
- Predicted placebo-adjusted and baseline-corrected HR at mean Cmax ([2]; trazodone 20 mg): 1.45 bpm
- Predicted placebo-adjusted and baseline-corrected HR at mean Cmax ([2]; trazodone 60 mg): 2.12 bpm
- Predicted placebo-adjusted and baseline-corrected HR at mean Cmax ([2]; trazodone 140 mg): 2.76 bpm
- Predicted placebo-adjusted and baseline-corrected PR at predicted Cmax ([2]; trazodone 140 mg): –7.4 ms
- Predicted placebo-adjusted and baseline-corrected QRS at predicted Cmax ([2]; trazodone 140 mg): 0.115 ms
- Placebo-adjusted change from baseline QTcF, estimate (90%CI) ([3]; trazodone 20 mg, N = 16, 5 min postdose): –3.3 (–7.8 to 1.1) ms
- Placebo-adjusted change from baseline QTcF, estimate (90%CI) ([3]; trazodone 20 mg, N = 16, 10 min postdose): –1.2 (–6.2 to 3.8) ms
- Placebo-adjusted change from baseline QTcF, estimate (90%CI) ([3]; trazodone 20 mg, N = 16, 20 min postdose): –0.2 (–5.4 to 5.0) ms
- Placebo-adjusted change from baseline QTcF, estimate (90%CI) ([3]; trazodone 20 mg, N = 16, 0.5 h postdose): 2.1 (–0.3 to 4.6) ms
- Placebo-adjusted change from baseline QTcF, estimate (90%CI) ([3]; trazodone 20 mg, N = 16, 1 h postdose): 6.6 (1.5–11.7) ms
- Placebo-adjusted change from baseline QTcF, estimate (90%CI) ([3]; trazodone 20 mg, N = 16, 2 h postdose): 3.5 (0.5–6.5) ms
- Placebo-adjusted change from baseline QTcF, estimate (90%CI) ([3]; trazodone 20 mg, N = 16, 3 h postdose): 1.7 (–2.7 to 6.1) ms
- Placebo-adjusted change from baseline QTcF, estimate (90%CI) ([3]; trazodone 20 mg, N = 16, 4 h postdose): 3.2 (–2.3 to 8.6) ms
- Placebo-adjusted change from baseline QTcF, estimate (90%CI) ([3]; trazodone 20 mg, N = 16, 6 h postdose): –0.2 (–4.8 to 4.3) ms
- Placebo-adjusted change from baseline QTcF, estimate (90%CI) ([3]; trazodone 20 mg, N = 16, 8 h postdose): 1.2 (–2.3 to 4.6) ms
- Placebo-adjusted change from baseline QTcF, estimate (90%CI) ([3]; trazodone 20 mg, N = 16, 12 h postdose): 0.6 (–4.7 to 5.8) ms
- Placebo-adjusted change from baseline QTcF, estimate (90%CI) ([3]; trazodone 20 mg, N = 16, 16 h postdose): –3.3 (–6.9 to 0.3) ms
- Placebo-adjusted change from baseline QTcF, estimate (90%CI) ([3]; trazodone 20 mg, N = 16, 24 h postdose): 1.8 (–3.5 to 7.1) ms
- Placebo-adjusted change from baseline QTcF, estimate (90%CI) ([3]; trazodone 60 mg, N = 16, 5 min postdose): –2.3 (–6.7 to 2.1) ms
- Placebo-adjusted change from baseline QTcF, estimate (90%CI) ([3]; trazodone 60 mg, N = 16, 10 min postdose): 0.3 (–4.1 to 4.6) ms
- Placebo-adjusted change from baseline QTcF, estimate (90%CI) ([3]; trazodone 60 mg, N = 16, 20 min postdose): 4.8 (–0.4 to 10.0) ms
- Placebo-adjusted change from baseline QTcF, estimate (90%CI) ([3]; trazodone 60 mg, N = 16, 0.5 h postdose): 11.9 (8.6–15.3) ms
- Placebo-adjusted change from baseline QTcF, estimate (90%CI) ([3]; trazodone 60 mg, N = 16, 2 h postdose): 8.8 (4.2–13.4) ms
- Placebo-adjusted change from baseline QTcF, estimate (90%CI) ([3]; trazodone 60 mg, N = 16, 3 h postdose): 6.1 (1.9–10.2) ms
- Placebo-adjusted change from baseline QTcF, estimate (90%CI) ([3]; trazodone 60 mg, N = 16, 4 h postdose): 7.9 (4.3–11.5) ms
- Placebo-adjusted change from baseline QTcF, estimate (90%CI) ([3]; trazodone 60 mg, N = 16, 6 h postdose): 2.2 (–1.8 to 6.2) ms
- Placebo-adjusted change from baseline QTcF, estimate (90%CI) ([3]; trazodone 60 mg, N = 16, 8 h postdose): –0.4 (–3.4 to 2.7) ms
- Placebo-adjusted change from baseline QTcF, estimate (90%CI) ([3]; trazodone 60 mg, N = 16, 12 h postdose): 6.4 (1.7–11.0) ms
- Placebo-adjusted change from baseline QTcF, estimate (90%CI) ([3]; trazodone 60 mg, N = 16, 16 h postdose): –1.4 (–5.6 to 2.7) ms
- Placebo-adjusted change from baseline QTcF, estimate (90%CI) ([3]; trazodone 60 mg, N = 16, 24 h postdose): 2.0 (–3.0 to 6.9) ms
- Placebo-adjusted change from baseline QTcF, estimate (90%CI) ([3]; trazodone 60 mg, N = 16, […] postdose): 16.9 ms
- Increase in the QTcF interval (time-matched analysis) ([3]; trazodone 60 mg, between 30 minutes and […] postdose): > 10 ms
- Placebo-adjusted change from baseline QTcF, estimate (90%CI) ([3]; trazodone 140 mg, N = 18, 5 min postdose): 0.8 (–2.7 to 4.4) ms
- Placebo-adjusted change from baseline QTcF, estimate (90%CI) ([3]; trazodone 140 mg, N = 18, 10 min postdose): 0.5 (–3.0 to 4.0) ms
- Placebo-adjusted change from baseline QTcF, estimate (90%CI) ([3]; trazodone 140 mg, N = 18, 20 min postdose): 11.6 (7.8–15.5) ms
- Placebo-adjusted change from baseline QTcF, estimate (90%CI) ([3]; trazodone 140 mg, N = 18, 0.5 h postdose): 20.2 (16.4–23.9) ms
- Placebo-adjusted change from baseline QTcF, estimate (90%CI) ([3]; trazodone 140 mg, N = 18, 1 h postdose): 24.5 (20.3–28.7) ms
- Placebo-adjusted change from baseline QTcF, estimate (90%CI) ([3]; trazodone 140 mg, N = 18, 2 h postdose): 17.1 (13.4–20.8) ms
- Placebo-adjusted change from baseline QTcF, estimate (90%CI) ([3]; trazodone 140 mg, N = 18, 3 h postdose): 14.5 (7.6–21.5) ms
- Placebo-adjusted change from baseline QTcF, estimate (90%CI) ([3]; trazodone 140 mg, N = 18, 4 h postdose): 12.8 (8.5–17.1) ms
- Placebo-adjusted change from baseline QTcF, estimate (90%CI) ([3]; trazodone 140 mg, N = 18, 6 h postdose): 6.7 (2.3–11.2) ms
- Placebo-adjusted change from baseline QTcF, estimate (90%CI) ([3]; trazodone 140 mg, N = 18, 8 h postdose): 5.8 (0.9–10.7) ms
- Placebo-adjusted change from baseline QTcF, estimate (90%CI) ([3]; trazodone 140 mg, N = 18, 12 h postdose): 7.9 (4.3–11.6) ms
- Placebo-adjusted change from baseline QTcF, estimate (90%CI) ([3]; trazodone 140 mg, N = 18, 16 h postdose): –0.7 (–5.2 to 3.8) ms
- Placebo-adjusted change from baseline QTcF, estimate (90%CI) ([3]; trazodone 140 mg, N = 18, 24 h postdose): 1.7 (–1.4 to 4.8) ms
- Increase in the QTcF interval (time-matched analysis) ([3]; trazodone 140 mg, between 15 minutes and 4 hours postdose): > 10 ms
- Heart rate: Bradycardic outliers ([4]; trazodone 20 mg, n = 18): 0 n (%)
- Heart rate: Tachycardic outliers ([4]; trazodone 20 mg, n = 18): 0 n (%)
- PR interval: Outliers ([4]; trazodone 20 mg, n = 18): 1 (6) n (%)
- QRS interval: Outliers ([4]; trazodone 20 mg, n = 18): 0 n (%)
- QTcF >30‐60 ms inc change from baseline ([4]; trazodone 20 mg, n = 18): 0 n (%)
- QTcF >60 ms inc change from baseline ([4]; trazodone 20 mg, n = 18): 0 n (%)
- QTcF New >480 ms ([4]; trazodone 20 mg, n = 18): 0 n (%)
- QTcF New >500 ms ([4]; trazodone 20 mg, n = 18): 0 n (%)
- Heart rate: Bradycardic outliers ([4]; trazodone 60 mg, n = 18): 0 n (%)
- Heart rate: Tachycardic outliers ([4]; trazodone 60 mg, n = 18): 1 (6) n (%)
- PR interval: Outliers ([4]; trazodone 60 mg, n = 18): 0 n (%)
- QRS interval: Outliers ([4]; trazodone 60 mg, n = 18): 0 n (%)
- QTcF >30‐60 ms inc change from baseline ([4]; trazodone 60 mg, n = 18): 1 (6) n (%)
- QTcF >60 ms inc change from baseline ([4]; trazodone 60 mg, n = 18): 0 n (%)
- QTcF New >480 ms ([4]; trazodone 60 mg, n = 18): 0 n (%)
- QTcF New >500 ms ([4]; trazodone 60 mg, n = 18): 0 n (%)
- Heart rate: Bradycardic outliers ([4]; trazodone 140 mg, n = 20): 1 (5) n (%)
- Heart rate: Tachycardic outliers ([4]; trazodone 140 mg, n = 20): 2 (10) n (%)
- PR interval: Outliers ([4]; trazodone 140 mg, n = 20): 1 (5) n (%)
- QRS interval: Outliers ([4]; trazodone 140 mg, n = 20): 0 n (%)
- QTcF >30‐60 ms inc change from baseline ([4]; trazodone 140 mg, n = 20): 6 (30) n (%)
- QTcF >60 ms inc change from baseline ([4]; trazodone 140 mg, n = 20): 0 n (%)
- QTcF New >480 ms ([4]; trazodone 140 mg, n = 20): 2 (10) n (%)
- QTcF New >500 ms ([4]; trazodone 140 mg, n = 20): 0 n (%)
- New ST‐segment depression changes ([5]; trazodone 20 mg, n = 18): 0 n (%)
- New ST‐segment elevation changes ([5]; trazodone 20 mg, n = 18): 0 n (%)
- New second‐degree heart block ([5]; trazodone 20 mg, n = 18): 0 n (%)
- New third‐degree heart block ([5]; trazodone 20 mg, n = 18): 0 n (%)
- New ST‐segment depression changes ([5]; trazodone 60 mg, n = 18): 1 (6) n (%)
- New ST‐segment elevation changes ([5]; trazodone 60 mg, n = 18): 0 n (%)
- New second‐degree heart block ([5]; trazodone 60 mg, n = 18): 0 n (%)
- New third‐degree heart block ([5]; trazodone 60 mg, n = 18): 0 n (%)
- New ST‐segment depression changes ([5]; trazodone 140 mg, n = 20): 0 n (%)
- New ST‐segment elevation changes ([5]; trazodone 140 mg, n = 20): 0 n (%)
- New second‐degree heart block ([5]; trazodone 140 mg, n = 20): 0 n (%)
- New third‐degree heart block ([5]; trazodone 140 mg, n = 20): 0 n (%)
- Dizziness, frequency of subjects ([6]; trazodone 20 mg): 0%
- Somnolence, frequency of subjects ([6]; trazodone 20 mg): 44.4%
- Dizziness, frequency of subjects ([6]; trazodone 60 mg): 5.6%
- Somnolence, frequency of subjects ([6]; trazodone 60 mg): 50.0%
- Headache, frequency of subjects ([6]; trazodone 140 mg): 10%
- Somnolence, frequency of subjects ([6]; trazodone 140 mg): 85.0%
- Vomiting, frequency of subjects ([6]; trazodone 140 mg): 10%
- Treatment-related ECG QT prolongation, frequency of subjects ([6]; trazodone 140 mg, 1 subject): 5%
- Treatment-related abdominal discomfort, frequency of subjects ([6]; trazodone 140 mg, 1 subject): 5%
- Treatment-related hypertension, frequency of subjects ([6]; trazodone 140 mg, 1 subject): 5%
- Treatment-related hypotension, frequency of subjects ([6]; trazodone 140 mg, 1 subject): 5%
- Treatment-related palpitations, frequency of subjects ([6]; trazodone 140 mg, 1 subject): 5%
- Elimination half-life [7, 11]: 14.9 ± 3.9 h
- Peak plasma concentrations [7, 11]: 1125 ± 111 ng/mL
- Elimination half-life [7, 12]: 6.7 ± 0.7 h
- Peak plasma concentrations [7, 12]: 842 ± 64 ng/mL
- Inhibition of hERG potassium channels [8]: potent dose‐dependent inhibition
- Metabolic pathway [9]: primarily metabolized by CYP3A4
- Predicted Mean Effect at Mean Cmax (placebo-corrected change from baseline QTcF, ΔΔQTcF) ([10]; trazodone 60 mg, mean Cmax 1269.0 ng/mL): 12.3 ms
- Predicted Mean Effect at Mean Cmax (placebo-corrected change from baseline QTcF, ΔΔQTcF) ([10]; trazodone 140 mg, mean Cmax 2083.5 ng/mL): 19.8 ms
